Columns and labels:
Assay in all cases: relative viability (nuclei count vs DMSO), 5 days (fraction); higher = more cells survive
[1] = compound: N=C1NC(=O)/C(=C/c2ccc(O)cc2)S1 [Mirin] + Cc1cc(Nc2cc(N3CCN(C)CC3)nc(Sc3ccc(NC(=O)C4CC4)cc3)n2)n[nH]1 [Tozasertib] (partner 0.1 µM)
Summary of the method: (§1)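 Five library-drug doses in √10 steps were combined with a fixed anchor-drug dose, or a single drug was given alone, by pin tool to lung cancer cell lines in 1536-well plates the day after seeding. Nuclei were stained and counted after 5 days. Relative viability is the nuclei count in treated wells over that in vehicle wells, taken as the median of duplicate plates.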

[2] = compound: N=C1NC(=O)/C(=C/c2ccc(O)cc2)S1 [Mirin] + Cc1nc(Nc2ncc(C(=O)Nc3c(C)cccc3Cl)s2)cc(N2CCN(CCO)CC2)n1 [Dasatinib] (partner 0.075 µM)
Summary of the method: as §1

[3] = compound: CCn1c(-c2nonc2N)nc2cnc(Oc3cccc(NC(=O)c4ccc(OCCN5CCOCC5)cc4)c3)cc21 + O=C(CCCCCCC(=O)Nc1ccccc1)NO [Vorinostat] (partner 1 µM)
Summary of the method: as §1

[4] = compound: CCn1c(-c2nonc2N)nc2cnc(Oc3cccc(NC(=O)c4ccc(OCCN5CCOCC5)cc4)c3)cc21 + Cc1nc(NC(=O)N2CCC[C@H]2C(N)=O)sc1-c1ccnc(C(C)(C)C(F)(F)F)c1 [Alpelisib] (partner 2 µM)
Summary of the method: as §1

Cell Line | relative viability ([1]; first compound 0.25 µM) | relative viability ([1]; first compound 0.7906 µM) | relative viability ([1]; first compound 2.5 µM) | relative viability ([1]; first compound 7.906 µM) | relative viability ([1]; first compound 25 µM) | relative viability ([2]; first compound 0.25 µM) | relative viability ([2]; first compound 0.7906 µM) | relative viability ([2]; first compound 2.5 µM) | relative viability ([2]; first compound 7.906 µM) | relative viability ([2]; first compound 25 µM) | relative viability ([3]; first compound 0.04 µM) | relative viability ([3]; first compound 0.1265 µM) | relative viability ([3]; first compound 0.4 µM) | relative viability ([3]; first compound 1.265 µM) | relative viability ([3]; first compound 4 µM) | relative viability ([4]; first compound 0.04 µM) | relative viability ([4]; first compound 0.1265 µM) | relative viability ([4]; first compound 1.265 µM) | relative viability ([4]; first compound 4 µM) | relative viability ([4]; first compound 0.4 µM)
SW 900 | 0.652 | 0.698 | 0.571 | 0.689 | 0.473 | 0.513 | 0.521 | 0.54 | 0.542 | 0.47 | 0.651 | 0.602 | 0.76 | 0.61 | 0.621 | – | – | – | – | –
NCI-H1944 | 0.245 | 0.231 | 0.253 | 0.192 | 0.174 | 0.218 | 0.244 | 0.2 | 0.218 | 0.224 | 0.662 | 0.572 | 0.463 | 0.481 | 0.261 | 0.934 | 0.809 | 0.781 | 0.789 | –
NCI-H838 | 0.265 | 0.303 | 0.213 | 0.23 | 0.203 | 0.275 | 0.277 | 0.309 | 0.394 | 0.346 | 0.459 | 0.372 | 0.337 | 0.329 | 0.205 | 0.654 | 0.467 | 0.406 | 0.332 | 0.484
NCI-H1650 | 0.379 | 0.483 | 0.421 | 0.325 | 0.277 | 0.307 | 0.294 | 0.306 | 0.256 | 0.231 | 0.666 | 0.59 | 0.562 | 0.596 | 0.528 | – | – | – | – | –
HCC-827 | 0.412 | 0.39 | 0.421 | 0.384 | 0.426 | 0.407 | 0.336 | 0.301 | 0.451 | 0.334 | 0.92 | 0.881 | 0.806 | 0.525 | 0.701 | 1.11 | 0.973 | 1.07 | 0.947 | 0.996
HCC-366 | 0.15 | – | 0.602 | 0.0813 | 0.103 | 0.677 | – | 0.624 | 0.588 | 0.486 | 0.396 | 0.3 | 0.137 | 0.0204 | 0.0377 | 0.462 | 0.429 | 0.0494 | 0.031 | 0.21
HARA | 0.126 | – | 0.107 | 0.0865 | 0.0791 | 0.194 | – | 0.222 | 0.247 | 0.195 | 0.524 | 0.551 | 0.538 | 0.577 | 0.645 | 0.831 | 0.797 | 0.395 | 0.485 | 0.756
NCI-H441 | 0.719 | 0.762 | 0.634 | 0.551 | 0.26 | 0.662 | 0.556 | 0.622 | 0.59 | 0.439 | 1.04 | 0.705 | 0.87 | 0.502 | 0.47 | 0.688 | 0.834 | 0.599 | 0.44 | 0.68
LXF-289 | 0.214 | 0.241 | 0.156 | 0.128 | 0.151 | 0.26 | 0.214 | 0.202 | 0.207 | 0.202 | 0.862 | 0.886 | 0.79 | 0.777 | 0.604 | 1.1 | 1.12 | 0.96 | 0.941 | 1
RERF-LC-KJ | 0.488 | 0.524 | 0.467 | 0.424 | 0.385 | 0.958 | 0.831 | 0.843 | 0.685 | 0.688 | 0.762 | 0.728 | 0.589 | 0.409 | 0.521 | 0.846 | 0.809 | 0.662 | 0.507 | 0.733
CAL-12T | 0.282 | – | 0.317 | 0.283 | 0.222 | 0.489 | – | 0.503 | 0.347 | 0.28 | 1.44 | 0.862 | 0.731 | 0.553 | 0.288 | 1.75 | 1.49 | 1.23 | 0.786 | 1.51
COR-L 105 | 0.341 | 0.384 | 0.343 | 0.401 | 0.309 | 0.347 | 0.328 | 0.382 | 0.288 | 0.261 | 0.941 | 0.785 | 0.762 | 0.419 | 0.412 | 1.08 | 0.694 | 0.596 | 0.459 | 0.938
NCI-H2405 | 0.71 | 0.778 | 0.775 | 0.67 | 0.61 | 0.195 | 0.252 | 0.206 | 0.206 | 0.192 | 0.938 | 0.488 | 0.264 | 0.239 | 0.238 | 0.893 | 0.425 | 0.326 | 0.274 | 0.368
NCI-H2228 | 0.267 | 0.197 | 0.235 | 0.203 | 0.176 | 0.594 | 0.458 | 0.516 | 0.448 | 0.412 | 0.842 | 0.524 | 0.891 | 0.543 | 0.456 | 1.14 | 0.998 | 0.732 | 0.644 | 0.776
